The values that follow come from patent US20230365563A1, “QUINAZOLINE COMPOUND AND APPLICATION THEREOF” (SHANGHAI PHARMACEUTICALS HOLDING CO., LTD., priority 2020, published 2023).

The test deals with T1, KRAS-G12D and SOS1 (Homo sapiens, UniProt P01116, G12D).
T1 construct: purchased
T1 sequence (P01116 1-188 isoform P01116-2 G12D): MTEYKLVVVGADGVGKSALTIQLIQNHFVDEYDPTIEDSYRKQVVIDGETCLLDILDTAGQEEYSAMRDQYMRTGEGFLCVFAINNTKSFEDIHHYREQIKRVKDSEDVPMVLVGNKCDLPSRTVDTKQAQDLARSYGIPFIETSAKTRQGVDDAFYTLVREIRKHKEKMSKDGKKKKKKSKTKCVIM
Nature of the test: Inhibition of KRAS-G12D/SOS1 binding (Cisbio binding kit, 665/615 ratio), Effect Embodiment A. The conditions noted are these: read-out: GTP-KRAS-G12D:SOS1 IC50. Here is the method: Similarly, the first dilution point of the compound to be tested was its storage solution, and the solution was 3-fold diluted, with 11+0 points of dilution. Echo was used to transfer 0.2 μL gradient diluted solution of the compounds into a 384-well plate, with 2 duplicated wells for each compound, and the final concentration of DMSO was 1%. The solution was centrifuged for 1 min at 1000 rpm/min.
IC50 of the compounds was fitted by Graphpad Prism 8 nonlinear regression equation: […]
The IC50 (half inhibitory concentration) of the compound was obtained by using the following nonlinear fitting formula: […]
The term IC50 denotes the concentration that inhibits the measured activity by half. As for `CN(C)C1CN(c2nc(N3CCNCC3)c3cc(Cl)c(-c4cc(O)cc5ccccc45)c(F)c3n2)C1` (single isomer, unassigned) [Comparative embodiment b, reference compound], the IC50 turned out to be 83.4 µM.
Then `CN(C)C1CN(c2nc(N3C[C@H]4CC[C@@H]3CN4)c3cc(Cl)c(-c4cc(O)cc5ccccc45)c(F)c3n2)C1` (single isomer, unassigned) [Compound 1a, (R or S)-4-(4-((1R,4R)-2,5-diazabicyclo[2.2.2]octan-2-yl)-6-chloro-2-(3-(dimethylamino)azetidin-1-yl)-8-fluoroquinazolin-7-yl)naphthalen-2-ol], with 6.44 µM; and `CN(C)C1CN(c2nc(N3C[C@H]4CC[C@@H]3CN4)c3cc(Cl)c(-c4cc(O)cc5ccccc45)c(F)c3n2)C1` (single isomer, unassigned) [Compound 1b, (S or R)-4-(4-((1R,4R)-2,5-diazabicyclo[2.2.2]octan-2-yl)-6-chloro-2-(3-(dimethylamino)azetidin-1-yl)-8-fluoroquinazolin-7-yl)naphthalen-2-ol], with 31.9 µM; and `CN(C)C1CN(c2nc(N3C[C@H]4C[C@@H]3CN4)c3cc(Cl)c(-c4cc(O)cc5ccccc45)c(F)c3n2)C1` (single isomer, unassigned) [Compound 3a, (R or S)-4-(4-((1R,4R)-2,5-diazabicyclo [2.2.1]heptan-2-yl)-6-chloro-2-(3-(dimethylamino)azetidin-1-yl)-8-fluoro-quinazolin-7-yl)naphthalen-2-ol], with 1.36 µM.
Then `CN(C)C1CN(c2nc(N3C[C@@H]4CC[C@H]3CN4)c3cc(Cl)c(-c4cc(O)cc5ccccc45)c(F)c3n2)C1` (single isomer, unassigned) [Compound 4b, (S or R)-4-(4-((1S,4S)-2,5-diazabicyclo [2.2.2]octan-2-yl)-6-chloro-2-(3-(dimethylamino)azetidin-1-yl)-8-fluoro-quinazolin-7-yl)naphthalen-2-ol], with 4.59 µM.
Then `CN(C)C1CN(c2nc(N3C[C@H]4CC[C@@H](C3)N4)c3cc(Cl)c(-c4cc(O)cc5ccccc45)c(F)c3n2)C1` (single isomer, unassigned) [Compound 5b, (S or R)-4-(4-((1R,5S)-3,8 diazabicyclo [3.2.1]octan-3-yl)-6-chloro-2-(3-(dimethylamino)azetidin-1-yl)-8-fluoro-quinazolin-7-yl)naphthalen-2-ol], with 63.3 µM; and `CN(C)C1CN(c2nc(N3CC4(CCNC4)C3)c3cc(Cl)c(-c4cc(O)cc5ccccc45)c(F)c3n2)C1` (single isomer, unassigned) [Compound 8b, (S or R)-4-(6-chloro-2-(3-(dimethylamino)azetidin-1-yl)-8-fluoro-4-(2,6-diazaspiro[3.4]octan-2-yl)quinazolin-7-yl)naphthalen-2-ol], with 71 µM.
As for `CN(C)C1CN(c2nc(N3CC(N(C)C)C3)c3cc(Cl)c(-c4cc(O)cc5ccccc45)c(F)c3n2)C1` (single isomer, unassigned) [Compound 9a, (R or S)-4-(6-chloro-2,4-bis(3-(dimethylamino)azetidin-1-yl)-8-fluoro-7-yl)naphthalen-2-ol], the IC50 turned out to be 81.6 µM.
Then `CN(C)C1CN(c2nc(N3CC(N(C)C)C3)c3cc(Cl)c(-c4cc(O)cc5ccccc45)c(F)c3n2)C1` (single isomer, unassigned) [Compound 9b, (S or R)-4-(6-chloro-2,4-bis(3-(dimethylamino)azetidin-1-yl)-8-fluoro-7-yl)naphthalen-2-ol], with over 200 µM; and `CN(C)C1CN(c2nc(N3CC4(CCNCC4)C3)c3cc(Cl)c(-c4cc(O)cc5ccccc45)c(F)c3n2)C1` (single isomer, unassigned) [Compound 10b, (S or R)-4-(6-chloro-2-(3-(dimethylamino)azetidin-1-yl)-8-fluoro-4-(2,7-diazaspiro[3.5 5]nonan-2-yl)quinazolin-7-yl)naphthalen-2-ol], with 65.1 µM; and `CN(C)C1CN(c2nc(N3CCC4(CC3)CNC4)c3cc(Cl)c(-c4cc(O)cc5ccccc45)c(F)c3n2)C1` (single isomer, unassigned) [Compound 11a, (R or S)-4-(6-chloro-2-(3-(dimethylamino)azetidin-1-yl)-8-fluoro-4-(2,7-diazaspiro[3.5]nonan-7-yl)quinazolin-7-yl)naphthalen-2-ol], with 1.53 µM.
Then `CN(C)C1CN(c2nc(N3CCC4(CCCN4)CC3)c3cc(Cl)c(-c4cc(O)cc5ccccc45)c(F)c3n2)C1` (single isomer, unassigned) [Compound 12a, (R or S)-4-(6-chloro-2-(3-(dimethylamino)azetidin-1-yl)-8-fluoro-4-(1,8-diazaspiro[4.5]decan-8-yl)quinazolin-7-yl)naphthalen-2-ol], with 7.12 µM; and `CN(C)C1CN(c2nc(N3C[C@H]4CNC[C@H]4C3)c3cc(Cl)c(-c4cc(O)cc5ccccc45)c(F)c3n2)C1` (single isomer, unassigned) [Compound 13a, (R or S)-4-(6-chloro-2-(3-(dimethylamino)azetidin-1-yl)-8-fluoro-4-((3aR,6aS)-hexahydro-pyrrolo[3,4-c]pyrrol-2 (1H)-yl)quinazolin-7-yl)naphthalen-2-ol], with 2.24 µM; and `CN(C)C1CN(c2nc(N3CC4CNCC4C3)c3cc(Cl)c(-c4cc(O)cc5ccccc45)c(F)c3n2)C1` (single isomer, unassigned) [Compound 14c, (R or S)-4-(6-chloro-2-(3-(dimethylamino)azetidin-1-yl)-8-fluoro-4-((3aR,6aR or 3aS,6aS)-hexahydro-pyrrolo[3,4-c]pyrrol-2(1H)-yl)quinazolin-7-yl)naphthalen-2-ol], with 9.49 µM.
Then `CN(C)C1CN(c2nc(N3CC4CNCC4C3)c3cc(Cl)c(-c4cc(O)cc5ccccc45)c(F)c3n2)C1` (single isomer, unassigned) [Compound 14d, (S or R)-4-(6-chloro-2-(3-(dimethylamino)azetidin-1-yl)-8-fluoro-4-((3aR,6aR or 3aS,6aS)-hexahydro-pyrrolo[3,4-c]pyrrol-2(1H)-yl)quinazolin-7-yl)naphthalen-2-ol], with 56.7 µM.
Regarding `CN(CCN)c1nc(N2CC(N(C)C)C2)nc2c(F)c(-c3cc(O)cc4ccccc34)c(Cl)cc12` (single isomer, unassigned) [Compound 15a, (R or S)-4-(4((2-aminoethyl) (methyl)-amino)-6-chloro-2-(3-(dimethylamino)azetidin-1-yl)-8-fluoroquinazolin-7-yl)naphthalen-2-ol], the IC50 was determined as 1.35 µM.
Then `CN(CCN)c1nc(N2CC(N(C)C)C2)nc2c(F)c(-c3cc(O)cc4ccccc34)c(Cl)cc12` (single isomer, unassigned) [Compound 15b, (S or R)-4-(4((2-aminoethyl) (methyl)-amino)-6-chloro-2-(3-(dimethylamino)azetidin-1-yl)-8-fluoroquinazolin-7-yl)naphthalen-2-ol], with 52.7 µM.
Then `CNCCN(C)c1nc(N2CC(N(C)C)C2)nc2c(F)c(-c3cc(O)cc4ccccc34)c(Cl)cc12` (single isomer, unassigned) [Compound 16a, (R or S)-4-(6-chloro-2-(3-(dimethylamino)azetidin-1-yl)-8-fluoro-4-(methyl(2-(methylamino)ethyl)amino)quinazolin-7-yl)naphthalen-2-ol], with 3.49 µM.
